Test results taken from ChEMBL document CHEMBL5625249, “Optimization and antifungal activity of quinoline derivatives linked to chalcone moiety combined with FLC against Candida albicans” (Eur J Med Chem, 2023).
Values after ≈ are worked out from the molar mass of the structure shown. Active and inactive are the calls of the source. The rule behind the calls is not given here.

Tests used:
[1] = tested on: Candida albicans; test: Synergistic antifungal activity against FLC-sensitive Candida albicans SC5314 assessed as fractional inhibitory concentration index measured after 24 hrs in presence of fluconazole by microdilution method; type: functional
[2] = tested on: Candida albicans; test: Synergistic antifungal activity against Clinical FLC-resistant Candida albicans 23 measured after 24 hrs in presence of fluconazole by microdilution method; type: functional
[3] = tested on: Candida albicans; test: Antifungal activity against Clinical FLC-resistant Candida albicans 23 measured after 24 hrs by microdilution method; type: functional
[4] = tested on: Candida albicans; test: Synergistic antifungal activity against FLC-sensitive Candida albicans SC5314 measured after 24 hrs in presence of fluconazole by microdilution method; type: functional
[5] = tested on: Candida albicans; test: Synergistic antifungal activity against Clinical FLC-resistant Candida albicans 23 assessed as fractional inhibitory concentration index measured after 24 hrs in presence of fluconazole by microdilution method; type: functional
[6] = tested on: Candida albicans; test: Antifungal activity against FLC-sensitive Candida albicans SC5314 measured after 24 hrs by microdilution method; type: functional
[7] = tested on: Candida albicans; test: In vivo antifungal activity against FLC-resistant Candida albicans ATCC 14053 infected in Balb/c mouse assessed as restoration of normal kidney morphology at 2 mg/kg, ig measured after 6 days by H and E staining based histopathological analysis; type: functional, organism-based; details: time 6.0 day
[8] = tested on: Candida albicans; test: Antifungal activity against clinical FLC-resistant Candida albicans 187 measured after 24 hrs by microdilution method; type: functional
[9] = Toxicity in Balb/c mouse assessed as weight loss at 2 mg/kg, ig measured daily for 6 days; type: organism-based; details: in vivo, po, 144 h, time 6 day
[10] = tested on: Candida albicans; test: In vivo antifungal activity against FLC-resistant Candida albicans ATCC 14053 infected in Balb/c mouse assessed as reduction in kidney fungal load at 2 mg/kg, ig measured after 6 days; type: functional, organism-based; details: time 6.0 day
[11] = tested on: Candida albicans; test: In vivo antifungal activity against FLC-resistant Candida albicans ATCC 14053 infected in Balb/c mouse assessed as reduction in infiltration of inflammatory cells at 2 mg/kg, ig measured after 6 days by H and E staining based histopathological analysis; type: functional, organism-based; details: time 6.0 day
[12] = tested on: Candida albicans; test: Antifungal activity against clinical FLC-resistant Candida albicans 381 measured after 24 hrs by microdilution method; type: functional
[13] = tested on: Candida albicans; test: In vivo antifungal activity against FLC-resistant Candida albicans ATCC 14053 infected in Balb/c mouse assessed as reduction in renal injury at 2 mg/kg, ig measured after 6 days by H and E staining based histopathological analysis; type: functional, organism-based; details: time 6.0 day
[14] = tested on: Candida albicans; test: In vivo antifungal activity against FLC-resistant Candida albicans ATCC 14053 infected in Balb/c mouse assessed as reduction in lung fungal load at 2 mg/kg, ig measured after 6 days; type: functional, organism-based; details: time 6.0 day
[15] = tested on: Candida albicans; test: Antifungal activity against clinical FLC-resistant Candida albicans 3816 measured after 24 hrs by microdilution method; type: functional
[16] = tested on: Candida albicans; test: In vivo antifungal activity against FLC-resistant Candida albicans ATCC 14053 infected in Balb/c mouse assessed as increase in organ coefficients of thymus at 2 mg/kg, ig measured after 6 days; type: functional, organism-based; details: time 6.0 day
[17] = tested on: Candida albicans; test: Antifungal activity against clinical FLC-resistant Candida albicans 550 measured after 24 hrs by microdilution method; type: functional
[18] = tested on: Candida albicans; test: Antifungal activity against clinical FLC-resistant Candida albicans 3511 measured after 24 hrs by microdilution method; type: functional
[19] = tested on: Candida albicans; test: Antifungal activity against clinical FLC-resistant Candida albicans 602 measured after 24 hrs by microdilution method; type: functional
[20] = tested on: Candida albicans; test: In vivo antifungal activity against FLC-resistant Candida albicans ATCC 14053 infected in Balb/c mouse assessed as increase in organ coefficients of spleen at 2 mg/kg, ig measured after 6 days; type: functional, organism-based; details: time 6.0 day
[21] = tested on: Candida albicans; test: In vivo antifungal activity against FLC-resistant Candida albicans ATCC 14053 infected in Balb/c mouse assessed as restoration of normal lung morphology at 2 mg/kg, ig measured after 6 days by H and E staining based histopathological analysis; type: functional, organism-based; details: time 6.0 day
[22] = tested on: Candida albicans; test: In vivo antifungal activity against FLC-resistant Candida albicans ATCC 14053 infected in Balb/c mouse assessed as restoration of normal glomeruli morphology at 2 mg/kg, ig measured after 6 days by H and E staining based histopathological analysis; type: functional, organism-based; details: time 6.0 day
[23] = tested on: Candida albicans; test: Antifungal activity against FLC-resistant Candida albicans ATCC 14053 assessed as inhibition of hyphal formation by measuring down regulation of CYR1 gene expression at 8 ug/ml measured after 16 to 18 hrs by qRT-PCR analysis; type: functional, organism-based; details: dose 8.0 µg/ml, time 16-18 hrs
[24] = tested on: Candida albicans; test: Antifungal activity against clinical FLC-resistant Candida albicans 4574 measured after 24 hrs by microdilution method; type: functional
[25] = tested on: Candida albicans; test: Antifungal activity against FLC-resistant Candida albicans ATCC 10231 measured after 24 hrs by microdilution method; type: functional
[26] = tested on: Candida albicans; test: Antifungal activity against clinical FLC-resistant Candida albicans 4508 measured after 24 hrs by microdilution method; type: functional
[27] = tested on: Candida albicans; test: Antifungal activity against FLC-resistant Candida albicans ATCC 14053 assessed as inhibition of hyphal formation by measuring down regulation of ALS3 gene expression at 8 ug/ml measured after 16 to 18 hrs by qRT-PCR analysis; type: functional, organism-based; details: dose 8.0 µg/ml, time 16-18 hrs
[28] = tested on: Candida albicans; test: Antifungal activity against FLC-resistant Candida albicans ATCC 14053 assessed as inhibition of hyphal formation by measuring down regulation of HWP1 gene expression at 8 ug/ml measured after 16 to 18 hrs by qRT-PCR analysis; type: functional, organism-based; details: dose 8.0 µg/ml, time 16-18 hrs
[29] = tested on: Candida albicans; test: Antifungal activity against clinical FLC-resistant Candida albicans 800 measured after 24 hrs by microdilution method; type: functional
[30] = tested on: Candida albicans; test: Antifungal activity against FLC-resistant Candida albicans ATCC 14053 cultured in SD +10% FBS liquid medium assessed as inhibition of hyphal formation at 1 ug/ml measured after 2 hrs by inverted microscopy; type: functional, organism-based; details: dose 1.0 µg/ml
[31] = tested on: Candida albicans; test: Antifungal activity against FLC-resistant Candida albicans ATCC 14053 assessed as inhibition of hyphal formation by measuring down regulation of EFG1 gene expression at 8 ug/ml measured after 16 to 18 hrs by qRT-PCR analysis; type: functional, organism-based; details: dose 8.0 µg/ml, time 16-18 hrs
[32] = tested on: Candida albicans; test: Antifungal activity against FLC-resistant Candida albicans ATCC 14053 assessed as inhibition of hyphal formation by measuring down regulation of RAS1 gene expression at 8 ug/ml measured after 16 to 18 hrs by qRT-PCR analysis; type: functional, organism-based; details: dose 8.0 µg/ml, time 16-18 hrs
[33] = tested on: Candida albicans; test: Antifungal activity against FLC-resistant Candida albicans ATCC 14053 assessed as inhibition of hyphal formation by measuring down regulation of ECE1 gene expression at 8 ug/ml measured after 16 to 18 hrs by qRT-PCR analysis; type: functional, organism-based; details: dose 8.0 µg/ml, time 16-18 hrs
[34] = tested on: Candida albicans; test: Antifungal activity against FLC-resistant Candida albicans ATCC 14053 measured after 24 hrs by microdilution method; type: functional
[35] = tested on: Candida albicans; test: In vivo antifungal activity against FLC-resistant Candida albicans ATCC 14053 infected in Balb/c mouse assessed as reduction in severity of lesions in kidney at 2 mg/kg, ig measured after 6 days by H and E staining based histopathological analysis; type: functional, organism-based; details: time 6.0 day
[36] = Toxicity in Balb/c mouse assessed as death at 2 mg/kg, ig measured daily for 6 days; type: organism-based; details: in vivo, po, 144 h, time 6 day
[37] = tested on: Candida albicans; test: Antifungal activity against clinical FLC-resistant Candida albicans 799 measured after 24 hrs by microdilution method; type: functional
[38] = tested on: Candida albicans; test: Antifungal activity against FLC-resistant Candida albicans ATCC 14053 cultured in spider medium assessed as inhibition of hyphal formation at 1 ug/ml measured after 2 hrs by inverted microscopy; type: functional, organism-based; details: dose 1.0 µg/ml
[39] = tested on: Candida albicans; test: In vivo antifungal activity against FLC-resistant Candida albicans ATCC 14053 infected in Balb/c mouse assessed as removal of colonized fungi at 2 mg/kg, ig measured after 6 days by H and E staining based histopathological analysis; type: functional, organism-based; details: time 6.0 day
[40] = tested on: Candida albicans; test: Induction of reactive oxygen species production in FLC-resistant Candida albicans ATCC 14053 at 1 ug/mL measured after 16 to 18 hrs by DCFH-DA staining based fluorescence assay; type: functional, organism-based; details: dose 1.0 µg/ml, time 16-18 hrs
[41] = tested on: Candida albicans; test: Antifungal activity against clinical FLC-resistant Candida albicans 808 measured after 24 hrs by microdilution method; type: functional
[42] = tested on: Candida albicans; test: Antifungal activity against FLC-resistant Candida albicans ATCC 14053 assessed as reduction in intracellular ATP level at 1 ug/ml measured after 16 to 18 hrs by luminescence assay; type: functional, organism-based; details: dose 1.0 µg/ml, time 16-18 hrs
[43] = tested on: Candida albicans; test: Induction of mitochondrial membrane potential loss in FLC-resistant Candida albicans ATCC 14053 at 1 ug/mL measured after 16 to 18 hrs by JC-1 staining based fluorescence assay; type: functional, organism-based; details: dose 1.0 µg/ml, time 16-18 hrs
[44] = tested on: Candida albicans; test: Antifungal activity against FLC-resistant Candida albicans ATCC 14053 at 1 ug/mL measured over 48 hrs by time-killing assay; type: functional, organism-based; details: dose 1.0 µg/ml
[45] = tested on: Candida albicans; test: In vivo antifungal activity against FLC-resistant Candida albicans ATCC 14053 infected in Balb/c mouse assessed as reduction in severity of lesions in lungs at 2 mg/kg, ig measured after 6 days by H and E staining based histopathological analysis; type: functional, organism-based; details: time 6.0 day
[46] = tested on: Candida albicans; test: In vivo antifungal activity against FLC-resistant Candida albicans ATCC 14053 infected in Balb/c mouse assessed as survival rate at 2 mg/kg, ig measured daily for 6 days (Rvb < 20%); type: functional; details: ATCC 14053, po, 144 h, time 6 day
[47] = Toxicity in Balb/c mouse infected with FLC-resistant Candida albicans ATCC 14053 assessed as weight loss at 2 mg/kg, ig measured daily for 6 days; type: organism-based; details: in vivo, po, 144 h, time 6 day

SMILES: CN1CCN(c2nc3ccccc3cc2/C=C/C(=O)c2ccc(N3CCN(Cc4ccc(F)c(F)c4)CC3)cc2)CC1
- fractional inhibitory concentration index (FICI) [1]: 0.38
- MIC80 [2]: 6.18 µg/mL
- MIC80 [3]: > 40 µg/mL
- MIC80 [4]: 2.06 µg/mL
- fractional inhibitory concentration index (FICI) [5]: 0.15
- MIC80 [6]: > 40 µg/mL

SMILES: CN1CCN(c2nc3ccccc3cc2/C=C/C(=O)c2ccc(N3CCN(S(=O)(=O)C4CC4)CC3)cc2)CC1
- fractional inhibitory concentration index (FICI) [1]: 0.91
- MIC80 [2]: 6.03 µg/mL
- MIC80 [3]: > 40 µg/mL
- MIC80 [4]: 4.93 µg/mL
- fractional inhibitory concentration index (FICI) [5]: 0.15
- MIC80 [6]: > 40 µg/mL

SMILES: CN1CCN(c2nc3ccccc3cc2/C=C/C(=O)c2ccc(N3CCN(S(=O)(=O)c4ccc(Cl)c(C(F)(F)F)c4)CC3)cc2)CC1
- fractional inhibitory concentration index (FICI) [1]: 0.98
- MIC80 [2]: 26.8 µg/mL
- MIC80 [3]: > 40 µg/mL
- MIC80 [4]: 5.31 µg/mL
- fractional inhibitory concentration index (FICI) [5]: 0.67
- MIC80 [6]: > 40 µg/mL

SMILES: CN1CCN(c2nc3ccccc3cc2/C=C/C(=O)c2ccc(N3CCN(C(=O)c4ccc(Cl)cc4)CC3)cc2)CC1
- fractional inhibitory concentration index (FICI) [1]: 0.12
- MIC80 [2]: 1.49 µg/mL
- MIC80 [3]: > 40 µg/mL
- MIC80 [4]: 0.64 µg/mL
- fractional inhibitory concentration index (FICI) [5]: 0.04
- MIC80 [6]: > 40 µg/mL

SMILES: OC(Cn1cncn1)(Cn1cncn1)c1ccc(F)cc1F [FLUCONAZOLE]
- Activity [7]: inactive
- MIC80 [8]: > 40 µg/mL
- Activity [9]: Non-Toxic
- Activity [10]: Active
- Activity [11]: inactive
- MIC80 [12]: > 40 µg/mL
- Activity [13]: inactive
- Activity [14]: inactive
- MIC80 [15]: > 40 µg/mL
- Activity [16]: Active
- MIC80 [17]: > 40 µg/mL
- MIC80 [18]: > 40 µg/mL
- MIC80 [19]: > 40 µg/mL
- Activity [20]: Active
- Activity [21]: inactive
- Activity [22]: inactive
- inhibition [23]: Active
- MIC80 [24]: > 40 µg/mL
- MIC80 [25]: > 40 µg/mL
- MIC80 [26]: > 40 µg/mL
- inhibition [27]: Active
- inhibition [28]: Active
- MIC80 [29]: > 40 µg/mL
- inhibition [30]: inactive
- inhibition [31]: Active
- inhibition [32]: Active
- inhibition [33]: Active
- MIC80 [34]: > 40 µg/mL
- Activity [35]: inactive
- Activity [36]: Non-Toxic
- MIC80 [3]: > 40 µg/mL
- MIC80 [37]: > 40 µg/mL
- inhibition [38]: inactive
- Activity [39]: inactive
- Activity [40]: Active
- MIC80 [6]: 5.79 µg/mL (≈ 18.9 µM)
- MIC80 [41]: > 40 µg/mL
- Activity [42]: Active
- Activity [43]: Active
- Activity [44]: Active
- Activity [45]: inactive
- survival at 2 mg/kg [46]: 30%
- Activity [47]: Toxic
